# Assay results published in the NIST ThermoML archive (doi:10.1016/j.fluid.2006.09.014).
# Numbers after ± are expanded uncertainties.
# Conditions: 298.15 K; 101.33 kPa; Liquid
row,SMILES,mass density [kg/m3]
1,CC(=O)c1ccccc1 [acetophenone],1023 ± 0.7
2,COc1ccccc1 [anisole],989.13 ± 0.21
3,Clc1ccccc1 [chlorobenzene],1100.9 ± 0.5
4,Cc1ccccc1 [toluene],862.27 ± 0.23
